Laboratory results published in PubChem BioAssay (NCI).
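Protocol summary: plate cells (96-well), add compound at 5 concentrations, incubate 48 h, interpolate endpoints linearly. TGI marks complete inhibition of growth.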

System: LXFL 529 NSCLC
Assay: NCI tumour cell line growth inhibition, 48 h

Row | Structure (SMILES) | TGI [µM]
1 | CC1(C)CCc2ccc(OCCC(=O)O)cc2O1 | > 100
2 | O=C1N(Cl)C(=O)C(c2ccc(Cl)cc2)(c2ccc(Cl)cc2)N1Cl | > 100

System: NCI-H23 lung
Assay: NCI tumour cell line growth inhibition, 48 h

Row | Structure (SMILES) | TGI [µM]
3 | NC(CCCCCCCCCCP(=O)(O)O)C(=O)O (stereo unspecified) | > 100
4 | N/C(=N\N=C/c1ccc(O)c(O)c1O)NO | 68.4
5 | CC1(C)CCc2ccc(OCCC(=O)O)cc2O1 | > 100
6 | O=C1N(Cl)C(=O)C(c2ccc(Cl)cc2)(c2ccc(Cl)cc2)N1Cl | > 100
7 | CCCCCCNC(=O)C(C)C1CCC2(C)C=CC(=O)C(C)=C2C1O (stereo unspecified) | > 100

System: SN12K1 renal
Assay: NCI tumour cell line growth inhibition, 48 h

Row | Structure (SMILES) | TGI [µM]
8 | N/C(=N\N=C/c1ccc(O)c(O)c1O)NO | 34.7
9 | CCCCCCNC(=O)C(C)C1CCC2(C)C=CC(=O)C(C)=C2C1O (stereo unspecified) | > 100

System: SR leukemia
Assay: NCI tumour cell line growth inhibition, 48 h

Row | Structure (SMILES) | TGI [µM]
10 | NC(CCCCCCCCCCP(=O)(O)O)C(=O)O (stereo unspecified) | > 100
11 | CC1(C)CCc2ccc(OCCC(=O)O)cc2O1 | > 100
12 | O=C1N(Cl)C(=O)C(c2ccc(Cl)cc2)(c2ccc(Cl)cc2)N1Cl | > 100

System: NCI-H460 lung
Assay: NCI tumour cell line growth inhibition, 48 h

Row | Structure (SMILES) | TGI [µM]
13 | NC(CCCCCCCCCCP(=O)(O)O)C(=O)O (stereo unspecified) | > 100
14 | N/C(=N\N=C/c1ccc(O)c(O)c1O)NO | 32.4
15 | CC1(C)CCc2ccc(OCCC(=O)O)cc2O1 | > 100
16 | O=C1N(Cl)C(=O)C(c2ccc(Cl)cc2)(c2ccc(Cl)cc2)N1Cl | > 100
17 | CCCCCCNC(=O)C(C)C1CCC2(C)C=CC(=O)C(C)=C2C1O (stereo unspecified) | > 100

System: LOX IMVI melanoma
Assay: NCI tumour cell line growth inhibition, 48 h

Row | Structure (SMILES) | TGI [µM]
18 | NC(CCCCCCCCCCP(=O)(O)O)C(=O)O (stereo unspecified) | > 100
19 | N/C(=N\N=C/c1ccc(O)c(O)c1O)NO | 33.9
20 | CC1(C)CCc2ccc(OCCC(=O)O)cc2O1 | > 100
21 | CCCCCCNC(=O)C(C)C1CCC2(C)C=CC(=O)C(C)=C2C1O (stereo unspecified) | > 100

System: UACC-257 melanoma
Assay: NCI tumour cell line growth inhibition, 48 h

Row | Structure (SMILES) | TGI [µM]
22 | NC(CCCCCCCCCCP(=O)(O)O)C(=O)O (stereo unspecified) | > 100
23 | N/C(=N\N=C/c1ccc(O)c(O)c1O)NO | > 100
24 | CCCCCCNC(=O)C(C)C1CCC2(C)C=CC(=O)C(C)=C2C1O (stereo unspecified) | > 100

System: UO-31 renal
Assay: NCI tumour cell line growth inhibition, 48 h

Row | Structure (SMILES) | TGI [µM]
25 | NC(CCCCCCCCCCP(=O)(O)O)C(=O)O (stereo unspecified) | > 100
26 | N/C(=N\N=C/c1ccc(O)c(O)c1O)NO | > 100
27 | CC1(C)CCc2ccc(OCCC(=O)O)cc2O1 | > 100
28 | O=C1N(Cl)C(=O)C(c2ccc(Cl)cc2)(c2ccc(Cl)cc2)N1Cl | > 100
29 | CCCCCCNC(=O)C(C)C1CCC2(C)C=CC(=O)C(C)=C2C1O (stereo unspecified) | > 100

System: HCT-116 colon
Assay: NCI tumour cell line growth inhibition, 48 h

Row | Structure (SMILES) | TGI [µM]
30 | NC(CCCCCCCCCCP(=O)(O)O)C(=O)O (stereo unspecified) | > 100
31 | N/C(=N\N=C/c1ccc(O)c(O)c1O)NO | > 59.6
32 | CC1(C)CCc2ccc(OCCC(=O)O)cc2O1 | > 100
33 | O=C1N(Cl)C(=O)C(c2ccc(Cl)cc2)(c2ccc(Cl)cc2)N1Cl | > 100
34 | CCCCCCNC(=O)C(C)C1CCC2(C)C=CC(=O)C(C)=C2C1O (stereo unspecified) | > 100

System: UACC-62 melanoma
Assay: NCI tumour cell line growth inhibition, 48 h

Row | Structure (SMILES) | TGI [µM]
35 | NC(CCCCCCCCCCP(=O)(O)O)C(=O)O (stereo unspecified) | > 100
36 | N/C(=N\N=C/c1ccc(O)c(O)c1O)NO | 41.5
37 | CC1(C)CCc2ccc(OCCC(=O)O)cc2O1 | > 100
38 | CCCCCCNC(=O)C(C)C1CCC2(C)C=CC(=O)C(C)=C2C1O (stereo unspecified) | > 100

System: P388/ADR leukemia
Assay: NCI tumour cell line growth inhibition, 48 h

Row | Structure (SMILES) | TGI [µM]
39 | N/C(=N\N=C/c1ccc(O)c(O)c1O)NO | 41.6
40 | CCCCCCNC(=O)C(C)C1CCC2(C)C=CC(=O)C(C)=C2C1O (stereo unspecified) | > 100

System: SF-268 CNS
Assay: NCI tumour cell line growth inhibition, 48 h

Row | Structure (SMILES) | TGI [µM]
41 | N/C(=N\N=C/c1ccc(O)c(O)c1O)NO | > 100
42 | CC1(C)CCc2ccc(OCCC(=O)O)cc2O1 | > 100
43 | O=C1N(Cl)C(=O)C(c2ccc(Cl)cc2)(c2ccc(Cl)cc2)N1Cl | > 100
44 | CCCCCCNC(=O)C(C)C1CCC2(C)C=CC(=O)C(C)=C2C1O (stereo unspecified) | > 100

System: DMS 114 small cell lung
Assay: NCI tumour cell line growth inhibition, 48 h

Row | Structure (SMILES) | TGI [µM]
45 | N/C(=N\N=C/c1ccc(O)c(O)c1O)NO | 54.8
46 | CC1(C)CCc2ccc(OCCC(=O)O)cc2O1 | > 100
47 | O=C1N(Cl)C(=O)C(c2ccc(Cl)cc2)(c2ccc(Cl)cc2)N1Cl | > 100
48 | CCCCCCNC(=O)C(C)C1CCC2(C)C=CC(=O)C(C)=C2C1O (stereo unspecified) | > 100

System: SNB-75 CNS
Assay: NCI tumour cell line growth inhibition, 48 h

Row | Structure (SMILES) | TGI [µM]
49 | NC(CCCCCCCCCCP(=O)(O)O)C(=O)O (stereo unspecified) | > 100
50 | N/C(=N\N=C/c1ccc(O)c(O)c1O)NO | > 46.5
51 | CC1(C)CCc2ccc(OCCC(=O)O)cc2O1 | > 100
52 | O=C1N(Cl)C(=O)C(c2ccc(Cl)cc2)(c2ccc(Cl)cc2)N1Cl | > 100
53 | CCCCCCNC(=O)C(C)C1CCC2(C)C=CC(=O)C(C)=C2C1O (stereo unspecified) | > 100

System: HL-60(TB) leukemia
Assay: NCI tumour cell line growth inhibition, 48 h

Row | Structure (SMILES) | TGI [µM]
54 | NC(CCCCCCCCCCP(=O)(O)O)C(=O)O (stereo unspecified) | > 100
55 | N/C(=N\N=C/c1ccc(O)c(O)c1O)NO | 41.4
56 | CC1(C)CCc2ccc(OCCC(=O)O)cc2O1 | > 100
57 | O=C1N(Cl)C(=O)C(c2ccc(Cl)cc2)(c2ccc(Cl)cc2)N1Cl | > 100
58 | CCCCCCNC(=O)C(C)C1CCC2(C)C=CC(=O)C(C)=C2C1O (stereo unspecified) | > 100

System: HOP-92 NSCLC
Assay: NCI tumour cell line growth inhibition, 48 h

Row | Structure (SMILES) | TGI [µM]
59 | NC(CCCCCCCCCCP(=O)(O)O)C(=O)O (stereo unspecified) | > 100
60 | N/C(=N\N=C/c1ccc(O)c(O)c1O)NO | > 100
61 | CC1(C)CCc2ccc(OCCC(=O)O)cc2O1 | > 100
62 | O=C1N(Cl)C(=O)C(c2ccc(Cl)cc2)(c2ccc(Cl)cc2)N1Cl | > 100
63 | CCCCCCNC(=O)C(C)C1CCC2(C)C=CC(=O)C(C)=C2C1O (stereo unspecified) | > 100

System: CCRF-CEM leukemia
Assay: NCI tumour cell line growth inhibition, 48 h

Row | Structure (SMILES) | TGI [µM]
64 | NC(CCCCCCCCCCP(=O)(O)O)C(=O)O (stereo unspecified) | > 100
65 | N/C(=N\N=C/c1ccc(O)c(O)c1O)NO | > 58.1
66 | CC1(C)CCc2ccc(OCCC(=O)O)cc2O1 | > 100
67 | O=C1N(Cl)C(=O)C(c2ccc(Cl)cc2)(c2ccc(Cl)cc2)N1Cl | 60.9
68 | CCCCCCNC(=O)C(C)C1CCC2(C)C=CC(=O)C(C)=C2C1O (stereo unspecified) | > 100

System: IGROV1 ovarian
Assay: NCI tumour cell line growth inhibition, 48 h

Row | Structure (SMILES) | TGI [µM]
69 | NC(CCCCCCCCCCP(=O)(O)O)C(=O)O (stereo unspecified) | > 100
70 | N/C(=N\N=C/c1ccc(O)c(O)c1O)NO | > 100
71 | CC1(C)CCc2ccc(OCCC(=O)O)cc2O1 | > 100
72 | O=C1N(Cl)C(=O)C(c2ccc(Cl)cc2)(c2ccc(Cl)cc2)N1Cl | > 100
73 | CCCCCCNC(=O)C(C)C1CCC2(C)C=CC(=O)C(C)=C2C1O (stereo unspecified) | > 100

System: U251 CNS
Assay: NCI tumour cell line growth inhibition, 48 h

Row | Structure (SMILES) | TGI [µM]
74 | NC(CCCCCCCCCCP(=O)(O)O)C(=O)O (stereo unspecified) | > 100
75 | N/C(=N\N=C/c1ccc(O)c(O)c1O)NO | > 83.6
76 | CC1(C)CCc2ccc(OCCC(=O)O)cc2O1 | > 100
77 | O=C1N(Cl)C(=O)C(c2ccc(Cl)cc2)(c2ccc(Cl)cc2)N1Cl | > 100
78 | CCCCCCNC(=O)C(C)C1CCC2(C)C=CC(=O)C(C)=C2C1O (stereo unspecified) | > 100

System: ACHN renal
Assay: NCI tumour cell line growth inhibition, 48 h

Row | Structure (SMILES) | TGI [µM]
79 | NC(CCCCCCCCCCP(=O)(O)O)C(=O)O (stereo unspecified) | > 100
80 | CC1(C)CCc2ccc(OCCC(=O)O)cc2O1 | > 100
81 | O=C1N(Cl)C(=O)C(c2ccc(Cl)cc2)(c2ccc(Cl)cc2)N1Cl | > 100
